Measurements published in US20230365576A1, “BRM Targeting Compounds And Associated Methods Of Use” (Prelude Therapeutics Incorporated, priority 2022, published 2023).

How the values were obtained:
SMARCA2 = biological target: T1, SMARCA2 (Homo sapiens, UniProt P51531); experiment: SMARCA2 HiBiT degradation assay in HeLa cells; format: cell-based; conditions: 18 hours; for DC50: read-out: SMARCA2 IC50; for Dmax: HeLa
T1 construct: SMARCA2-HiBiT knock-in Hela monoclonal cell (CS302366); host or cells: HeLa (CRISPR HiBiT knock-in monoclonal line, heterozygous)
Procedure: (§1) Example A. SMARCA2 HiBiT and SMARCA4 HiBiT Degradation Assay
(§2) Preparation of SMARCA2/4-HiBiT Knock-In Cells
(§3) HiBiT peptide knock-in of SMARCA2 in LgBiT expressing HEK293T cells was performed by CRISPR-mediated tagging system as described Promega. The homozygous HiBiT knock-in on c-terminus SMARCA2 was confirmed by sanger sequence. SMARCA2-HiBiT knock-in Hela monoclonal cell (CS302366) and SMARCA4-HiBiT knock-in Hela monoclonal cell (CS3023226) were purchased from Promega. The heterozygous HiBiT-knock-in was confirmed by sanger sequence in both SMARCA2-HiBiT and SMARCA4-HiBiT monoclonal cells.
(§4) SMARCA2 HiBiT and SMARCA4 HiBiT Degradation Assay in HeLa Cells
(§5) Compounds were dissolved in DMSO to make 10 mM stock and 3-fold series dilutions were further conducted keeping the highest concentration 10 μM. NCIH1693 and NCIH520 cells were maintained in PRMI 1640 medium (Corning Cellgro, Catalog #:10-040-CV) supplemented with 10% v/v FBS (GE Healthcare, Catalog #: SH30910.03) by splitting 1:3 twice a week.
(§6) Dispense 10 ul aliquot of prepared Hela-SMARCA2-HiBiT or Hela-SMARCA4-HiBiT cells (1:1 ratio of cells:Trypan Blue (#1450013, Bio-Rad)) onto cell counting slide (#145-0011, Bio-Rad) and obtain cell density and cell viability using cell counter (TC20, Bio-Rad). Remove appropriate volume of resuspended cells from culture flask to accommodate 2500 cells/well @ 20 μL/well. Transfer Hela-HiBiT cells to 50 mL conical (#430290, Corning). Spin down at 1000 rpm for 5 min using tabletop centrifuge (SPINCHRON 15, Beckman). Discard supernatant and resuspend cell pellet in modified EMEM (#30-2003, ATCC) cell culture media containing 10% FBS (F2422-500ML, Sigma), and 1X Penicillin/Streptomycin (200 g/L) (30-002-CI, Corning) to a cell density of 125,000 cells/mL. Dispense 20 μL of resuspended Hela-HiBit cells per well in 384-well TC treated plate (#12-565-343, Thermo Scientific) using standard cassette (#50950372, Thermo Scientific) on Multidrop Combi (#5840310, Thermo Scientific) inside laminar flow cabinet. Dispense test compounds onto plates using digital liquid dispenser (D300E, Tecan). Incubate plates in humidified tissue culture incubator @37° C. for 18 hours. Add 20 μL of prepared Nano-Glo® HiBiT Lytic detection buffer (N3050, Promega) to each well of 384-well plate using small tube cassette (#24073295, Thermo Scientific) on Multidrop Combi, incubate @ RT for 30-60 min. Read plates on microplate reader (Envision 2105, PerkinElmer) using 384 well Ultra-Sensitive luminescence mode. Raw data files and compound information reports are swept into centralized data lake and deconvoluted using automated scripts designed by TetraScience, Inc. Data analysis, curve-fitting and reporting done in Dotmatics Informatics Suite using Screening Ultra module.

SMARCA4 = biological target: T2, SMARCA4 (Homo sapiens, UniProt P51532); experiment: SMARCA4 HiBiT degradation assay in HeLa cells; format: cell-based; conditions: 18 hours; for Dmax: HeLa
T2 construct: SMARCA4-HiBiT knock-in Hela monoclonal cell (CS3023226) were purchased from Promega; host or cells: HeLa (CRISPR HiBiT knock-in monoclonal line, heterozygous)
Procedure: as §1, §2, §3, §4, §5, §6

T1 sequence (P51531 whole entry): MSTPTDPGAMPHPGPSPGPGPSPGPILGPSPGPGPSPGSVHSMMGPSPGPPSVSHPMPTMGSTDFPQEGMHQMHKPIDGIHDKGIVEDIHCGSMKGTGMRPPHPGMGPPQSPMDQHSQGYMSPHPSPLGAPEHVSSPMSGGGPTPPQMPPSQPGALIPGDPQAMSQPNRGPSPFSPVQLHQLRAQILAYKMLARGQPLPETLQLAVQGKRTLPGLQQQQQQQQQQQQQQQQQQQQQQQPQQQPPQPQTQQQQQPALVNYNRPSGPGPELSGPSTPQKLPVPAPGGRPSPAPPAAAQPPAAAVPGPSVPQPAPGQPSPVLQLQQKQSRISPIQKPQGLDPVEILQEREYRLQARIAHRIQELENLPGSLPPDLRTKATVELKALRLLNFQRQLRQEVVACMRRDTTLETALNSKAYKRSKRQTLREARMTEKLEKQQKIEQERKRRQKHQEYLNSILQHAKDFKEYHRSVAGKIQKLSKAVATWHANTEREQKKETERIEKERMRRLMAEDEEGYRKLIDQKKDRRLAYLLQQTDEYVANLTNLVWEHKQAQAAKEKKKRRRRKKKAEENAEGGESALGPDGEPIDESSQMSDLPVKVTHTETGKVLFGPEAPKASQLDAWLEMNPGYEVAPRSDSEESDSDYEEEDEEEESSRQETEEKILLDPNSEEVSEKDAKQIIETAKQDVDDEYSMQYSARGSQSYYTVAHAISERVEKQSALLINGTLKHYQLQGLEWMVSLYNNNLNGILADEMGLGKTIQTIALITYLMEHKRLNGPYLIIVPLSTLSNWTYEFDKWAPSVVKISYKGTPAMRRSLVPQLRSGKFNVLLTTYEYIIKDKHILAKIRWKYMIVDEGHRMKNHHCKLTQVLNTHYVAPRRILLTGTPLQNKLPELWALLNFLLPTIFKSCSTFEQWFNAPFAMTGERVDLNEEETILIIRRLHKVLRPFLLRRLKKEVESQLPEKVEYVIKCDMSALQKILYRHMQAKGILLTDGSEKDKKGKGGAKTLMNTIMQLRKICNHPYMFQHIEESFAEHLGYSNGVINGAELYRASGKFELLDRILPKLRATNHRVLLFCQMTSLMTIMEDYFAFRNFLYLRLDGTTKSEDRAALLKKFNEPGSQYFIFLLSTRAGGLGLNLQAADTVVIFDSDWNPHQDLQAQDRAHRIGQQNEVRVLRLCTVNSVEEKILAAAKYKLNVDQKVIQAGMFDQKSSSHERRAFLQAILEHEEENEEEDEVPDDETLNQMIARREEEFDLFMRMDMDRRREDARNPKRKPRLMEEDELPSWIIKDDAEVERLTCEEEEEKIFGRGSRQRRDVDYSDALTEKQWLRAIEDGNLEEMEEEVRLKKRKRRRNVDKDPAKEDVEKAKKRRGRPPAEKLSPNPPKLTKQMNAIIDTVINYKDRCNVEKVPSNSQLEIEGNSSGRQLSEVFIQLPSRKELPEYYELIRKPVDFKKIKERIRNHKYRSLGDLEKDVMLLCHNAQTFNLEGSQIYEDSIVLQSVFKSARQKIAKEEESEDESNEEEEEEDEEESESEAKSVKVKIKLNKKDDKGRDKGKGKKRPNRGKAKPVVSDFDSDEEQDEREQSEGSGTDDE
T2 sequence (P51532 whole entry): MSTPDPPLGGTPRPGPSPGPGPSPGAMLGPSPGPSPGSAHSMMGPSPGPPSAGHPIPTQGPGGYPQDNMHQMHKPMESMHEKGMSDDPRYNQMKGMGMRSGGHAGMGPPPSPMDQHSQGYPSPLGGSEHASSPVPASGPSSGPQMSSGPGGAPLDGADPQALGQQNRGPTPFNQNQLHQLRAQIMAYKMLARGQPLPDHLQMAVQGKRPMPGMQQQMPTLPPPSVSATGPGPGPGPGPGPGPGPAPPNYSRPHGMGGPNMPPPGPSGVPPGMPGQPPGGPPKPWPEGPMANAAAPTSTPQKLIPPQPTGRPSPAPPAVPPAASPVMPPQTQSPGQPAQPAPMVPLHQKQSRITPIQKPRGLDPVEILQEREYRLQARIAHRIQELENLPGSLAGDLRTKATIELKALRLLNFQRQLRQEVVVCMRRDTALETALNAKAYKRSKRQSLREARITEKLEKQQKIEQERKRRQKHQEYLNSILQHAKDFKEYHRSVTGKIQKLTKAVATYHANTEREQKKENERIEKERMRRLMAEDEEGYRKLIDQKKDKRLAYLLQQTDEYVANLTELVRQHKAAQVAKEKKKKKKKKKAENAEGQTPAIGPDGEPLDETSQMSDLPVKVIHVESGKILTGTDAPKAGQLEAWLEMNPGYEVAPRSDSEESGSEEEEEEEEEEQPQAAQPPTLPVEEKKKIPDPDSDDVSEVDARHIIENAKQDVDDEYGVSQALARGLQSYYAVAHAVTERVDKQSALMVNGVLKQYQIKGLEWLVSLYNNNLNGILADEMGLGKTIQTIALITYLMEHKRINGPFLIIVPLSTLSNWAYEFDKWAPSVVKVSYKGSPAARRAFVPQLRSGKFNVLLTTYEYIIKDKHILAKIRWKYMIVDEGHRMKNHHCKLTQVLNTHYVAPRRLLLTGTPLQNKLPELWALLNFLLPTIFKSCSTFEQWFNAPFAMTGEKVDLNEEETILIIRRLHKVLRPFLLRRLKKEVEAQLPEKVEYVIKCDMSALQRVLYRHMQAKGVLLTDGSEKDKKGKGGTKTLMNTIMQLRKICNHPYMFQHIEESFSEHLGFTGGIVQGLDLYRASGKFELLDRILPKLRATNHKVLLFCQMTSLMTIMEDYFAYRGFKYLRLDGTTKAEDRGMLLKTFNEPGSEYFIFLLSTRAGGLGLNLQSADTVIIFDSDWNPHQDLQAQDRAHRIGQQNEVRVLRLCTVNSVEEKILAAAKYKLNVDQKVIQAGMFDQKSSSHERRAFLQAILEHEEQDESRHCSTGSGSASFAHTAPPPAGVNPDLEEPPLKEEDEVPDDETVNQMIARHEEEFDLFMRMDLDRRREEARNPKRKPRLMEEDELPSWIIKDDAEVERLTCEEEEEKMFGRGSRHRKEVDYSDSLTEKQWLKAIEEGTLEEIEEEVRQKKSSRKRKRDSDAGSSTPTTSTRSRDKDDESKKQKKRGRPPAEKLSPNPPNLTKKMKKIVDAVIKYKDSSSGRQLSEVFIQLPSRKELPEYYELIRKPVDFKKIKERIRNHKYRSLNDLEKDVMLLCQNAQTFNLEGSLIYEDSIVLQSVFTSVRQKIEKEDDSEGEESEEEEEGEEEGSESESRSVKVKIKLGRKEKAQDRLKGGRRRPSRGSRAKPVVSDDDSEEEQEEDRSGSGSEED

| DC50 (SMARCA2) | Dmax (SMARCA2) | DC50 (SMARCA4) | Dmax (SMARCA4) | SMARCA2 DMax % (SMARCA2) | SMARCA4 DMax % (SMARCA4) | SMILES |
| --- | --- | --- | --- | --- | --- | --- |
| < 100 nM | > 75% | < 100 nM | 50 to 75% |  |  | CC1(C)CC(CN2CCN(c3ccc4c(c3)C(=O)N(C3CCC(=O)NC3=O)C4)CC2)CCN1C(=O)N1CCN2c3cc(-c4cccc(F)c4O)nnc3NC[C@H]2C1 (stereo partly drawn) [Example 122, 3-(6-(4-((1-((S)-2-(3-fluoro-2-hydroxyphenyl)-6,6a,7,8,9,10-hexahydro-5H-pyrazino[1′,2′:4,5]pyrazino[2,3-c]pyridazine-8-carbonyl)-2,2-dimethylpiperidin-4-yl)methyl)piperazin-1-yl)-1-oxoisoindolin-2-yl)piperidine-2,6-dione] |
| < 100 nM | 50 to 75% | < 100 nM | < 50% |  |  | O=C1CCC(N2Cc3ccc(N4CCC(CN5CCC(F)(C(=O)N6CCN7c8cc(-c9cc(F)cc(F)c9O)nnc8NC[C@H]7C6)CC5)CC4)cc3C2=O)C(=O)N1 (stereo partly drawn) [Example 55, 3-(6-(4-((4-((S)-2-(3,5-difluoro-2-hydroxyphenyl)-6,6a,7,8,9,10-hexahydro-5H-pyrazino[1′,2′:4,5]pyrazino[2,3-c]pyridazine-8-carbonyl)-4-fluoropiperidin-1-yl)methyl)piperidin-1-yl)-1-oxoisoindolin-2-yl)piperidine-2,6-dione] |
| < 100 nM | > 75% | < 100 nM | 50 to 75% |  |  | CCC12CNc3nnc(-c4cccc(Cl)c4O)cc3N1CCN(C(=O)N1CCN(CC3CCN(c4ccc5c(c4)C(=O)N([C@H]4CCC(=O)NC4=O)C5)CC3)CC1(C)C)C2 (single isomer, unassigned) [Example 76] |
| < 100 nM | > 75% | < 100 nM | < 50% |  |  | CCC1CN(CC2CN(c3ccc4c(c3)C(=O)N(C3CCC(=O)NC3=O)C4)C2)CCN1C(=O)N1CCN2c3cc(-c4cc(F)cc(F)c4O)nnc3NC[C@H]2C1 (mixture of isomers) [Example 29, 3-(6-(3-((4-((S)-2-(3,5-difluoro-2-hydroxyphenyl)-6,6a,7,8,9,10-hexahydro-5H-pyrazino[1′,2′:4,5]pyrazino[2,3-c]pyridazine-8-carbonyl)-3-ethylpiperazin-1-yl)methyl)azetidin-1-yl)-1-oxoisoindolin-2-yl)piperidine-2,6-dione] |
| < 100 nM |  | < 100 nM |  | A (A=Dmax>75%) | A (A=Dmax>75%) | CCC12CNc3nnc(-c4cccc(F)c4O)cc3N1CCN(C(=O)N1[C@H](C)CN(CC3CCN(c4ccc5c(c4)C(=O)N(C4CCC(=O)NC4=O)C5)CC3)C[C@@H]1C)C2 (single isomer, unassigned) [Example 86] |

The remaining lines, values behind:

| SMILES | DC50 (SMARCA2) | Dmax (SMARCA2) | DC50 (SMARCA4) | Dmax (SMARCA4) | SMARCA2 DMax % (SMARCA2) | SMARCA4 DMax % (SMARCA4) |
| --- | --- | --- | --- | --- | --- | --- |
| CCC12CNc3nnc(-c4cc(F)cc(F)c4O)cc3N1CCN(C(=O)N1[C@H](C)CN(CC3CCN(c4ccc5c(c4)C(=O)N(C4CCC(=O)NC4=O)C5)CC3)C[C@@H]1C)C2 (single isomer, unassigned) [Example 61] | < 100 nM |  | < 100 nM |  |  |  |
| CC1(C)CN(CC2CCN(c3ccc4c(c3)C(=O)N([C@H]3CCC(=O)NC3=O)C4)CC2)CCN1C(=O)N1CCN2c3cc(-c4cccc(F)c4O)nnc3NCC2(C(F)(F)F)C1 (single isomer, unassigned) [Example 101] | < 100 nM |  | > 1000 nM |  | B (B=50%<Dmax≤75%) | C (C=Dmax<50%) |
| CCC12CNc3nnc(-c4cccc(F)c4O)cc3N1CCN(C(=O)N1CCN(CC3CCN(c4ccc5c(c4)C(=O)N(C4CCC(=O)NC4=O)C5)CC3)CC1(C)C)C2 (single isomer, unassigned) [Example 80, 3-(6-(4-((4-(6a-ethyl-2-(3-fluoro-2-hydroxyphenyl)-6,6a,7,8,9,10-hexahydro-5H-pyrazino-[1′,2′:4,5]pyrazino[2,3-c]pyridazine-8-carbonyl)-3,3-dimethylpiperazin-1-yl)methyl)-piperidin-1-yl)-1-oxoisoindolin-2-yl)piperidine-2,6-dione] | < 100 nM |  | < 100 nM |  | A (A=Dmax>75%) | B (B=50%<Dmax≤75%) |
| CC1(C)CN(CC2CCN(c3ccc4c(c3)C(=O)N(C3CCC(=O)NC3=O)C4)CC2)CCN1C(=O)N1CCN2c3cc(-c4cccc(F)c4O)nnc3NCC2(C)C1 (single isomer, unassigned) [Example 9, 3-(6-(4-((4-(2-(3-fluoro-2-hydroxyphenyl)-6a-methyl-6,6a,7,8,9,10-hexahydro-5H-pyrazino[1′,2′:4,5]pyrazino[2,3-c]pyridazine-8-carbonyl)-3,3-dimethylpiperazin-1-yl)methyl)piperidin-1-yl)-1-oxoisoindolin-2-yl)piperidine-2,6-dione] | < 100 nM | > 75% | < 100 nM |  |  | A (A=Dmax>75%) |
| O=C1CCC(N2Cc3ccc(N4CCN(C[C@H]5CC[C@@H](CN6CCN7c8cc(-c9cc(F)cc(F)c9O)nnc8NC[C@H]7C6)CC5)CC4)cc3C2=O)C(=O)N1 (stereo partly drawn) [Example 56, 3-(6-(4-(((1R,4s)-4-(((S)-2-(3,5-difluoro-2-hydroxyphenyl)-5,6,6a,7,9,10-hexahydro-8H-pyrazino[1′,2′:4,5]pyrazino[2,3-c]pyridazin-8-yl)methyl)cyclohexyl)methyl)piperazin-1-yl)-1-oxoisoindolin-2-yl)piperidine-2,6-dione] | < 100 nM | > 75% | < 100 nM | > 75% |  |  |
| C[C@@H]1CN(CC2CCN(c3ccc4c(c3)C(=O)N(C3CCC(=O)NC3=O)C4)CC2)[C@@H](C)CN1C(=O)N1CCN2c3cc(-c4cccc(F)c4O)nnc3NCC2(C)C1 (single isomer, unassigned) [Example 91] | < 100 nM | > 75% | 100 to 1000 nM | < 50% |  |  |
| CC1(C)CN(CC2CN(c3ccc4c(c3)C(=O)N(C3CCC(=O)NC3=O)C4)C2)CCN1C(=O)N1CCN2c3cc(-c4cc(F)cc(F)c4O)nnc3NC[C@H]2C1 (stereo partly drawn) [Example 23, 3-(6-(3-((4-((S)-2-(3,5-difluoro-2-hydroxyphenyl)-6,6a,7,8,9,10-hexahydro-5H-pyrazino[1′,2′:4,5]pyrazino[2,3-c]pyridazine-8-carbonyl)-3,3-dimethylpiperazin-1-yl)methyl)azetidin-1-yl)-1-oxoisoindolin-2-yl)piperidine-2,6-dione] | < 100 nM | > 75% | < 100 nM | < 50% |  |  |
| CC1(C)CN(CC2CCN(c3ccc4c(c3)C(=O)N([C@H]3CCC(=O)NC3=O)C4)CC2)CCN1C(=O)N1CCN2c3cc(-c4cccc(F)c4O)nnc3NCC2(CF)C1 (single isomer, unassigned) [Example 90] | < 100 nM |  | > 1000 nM |  | A (A=Dmax>75%) | C (C=Dmax<50%) |
| C[C@@H]1CN(CC2CCN(c3ccc4c(c3)C(=O)N([C@H]3CCC(=O)NC3=O)C4)CC2)C[C@H](C)N1C(=O)N1CCN2c3cc(-c4cc(F)cc(F)c4O)nnc3NC[C@H]2C1 [Example 17, (S)-3-(6-(4-(((3S,5R)-4-((S)-2-(3,5-difluoro-2-hydroxyphenyl)-6,6a,7,8,9,10-hexahydro-5H-pyrazino[1′,2′:4,5]pyrazino[2,3-c]pyridazine-8-carbonyl)-3,5-dimethylpiperazin-1-yl)methyl)piperidin-1-yl)-1-oxoisoindolin-2-yl)piperidine-2,6-dione] | < 100 nM | > 75% | < 100 nM | 50 to 75% |  |  |
